Results on 3 compounds are retold here after patent US9796714B2, “Calcium channel agonists” (University of Pittsburgh—Of the Commonwealth System of …, priority 2013, dated 2017).

Like-named read-outs stand apart in the source and are kept apart here.

The target in data set [1] is T1, N-type Ca^2+ channel (Cav2.2) (Rattus norvegicus, UniProt Q02294).
T1 construct: expressed in transfected cells; later also transient transfection
The data set is described as follows: N-type Ca2+ channel agonist activity, whole-cell perforated patch clamp of tail currents in tsA201 cells. Format: cell-based. The protocol:
tsA201 cells expressing calcium channels. […] For subsequent evaluation of effects on N-, P/Q-, or L-type channels, tsA-201 cells were transiently transfected with Cav2.2, Cav2.1, or Cav1.3, in combination with Cavβ3 and […] (Addgene, Cambridge Mass.) using FuGENE 6 (Life Technologies, Grand Island, N.Y.). All cells were maintained in DMEM supplemented with 10% fetal bovine serum. For the stable cell line expressing N-type channels, 25 μg/mL zeocin, 5 μg/mL blasticidin, and 25 μg/mL hygromycin were added as selection agents.
Whole-cell patch clamp recordings of calcium current. […] Briefly, the pipette solution consisted of […] Cs2SO4, 60 mM CsCl, 1 mM MgCl2, 10 mM 4-(2-hydroxyethyl)-1-piperazineethanesulfonic acid (HEPES) at pH 7.4. […] Patch pipettes were fabricated from borosilicate glass and pulled to a resistance of about 1 MΩ. Before each experiment, a stock solution consisting of 3 mg amphotericin-B dissolved into 50 μL anhydrous DMSO was made. […] Capacitive currents and passive membrane responses to voltage commands were subtracted from the data. Currents were amplified by an Axopatch 200B amplifier, filtered at 5 KHz, and digitized at 10 KHz for subsequent analysis using pClamp software (Axon Instruments/Molecular Devices; Sunnyvale, Calif.). […] To measure effects on calcium channel tail currents, the tail current integral was measured before and after application of a derivative, with the integral of each trace being normalized to its peak. All experiments were carried out at room temperature (22° C.). […] All other salts and chemicals were obtained from Sigma-Aldrich chemical company (St. Louis, Mo.).
(§1) Statistical Analysis. Statistical analysis was performed using either GraphPad Prism 5 (GraphPad Software, Inc.) or Origin 7 (OriginLab) software. For the dose-response analyses on Ca^2+ current, each concentration of the four different compounds was tested in 3-6 cells. […] All EC50 and IC50 values and their respective errors were determined by performing 100 iterations of a logistic function curve fit. Data are presented as mean±s.e.m. unless otherwise noted.
(In patch-clamp work, channel activity is measured electrically.)

Data set [2] can be described thus: Solubility in saline with 1% DMSO. Format: physicochemical. The conditions noted are these: saline or isotonic, kinetic from dmso stock.
For data set [3], the target named is T2, mitogen-activated protein kinase (MAPK1(h)) (Homo sapiens, UniProt P27361).
T2 construct: purchased EMD Millipore KinaseProfiler service (Millipore UK Ltd.)
The data set is described as follows: Kinase inhibitory activity (EMD Millipore KinaseProfiler), MAPK1. Format: biochemical. Conditions: 20 μM highest concentration used; read-out: MAPK EC50/IC50 affinities. The protocol:
(§2) Kinase inhibitory activity. Kinase inhibitory activities were determined using the EMD Millipore KinaseProfiler™ service (Millipore UK Ltd.). Each compound's kinase inhibitory activity was tested at three different concentrations (0.2 μM, 2 μM, and 20 μM) against five different kinases: Cdk1 cyclinB(h), cdk2 cyclinA(h), cdk5 p35(h), mitogen-activated protein kinase (MAPK1(h)) and myosin light-chain kinase (MLCK(h)).
(§3) Statistical Analysis. […] For the dose-response analyses on Ca^2+ current, each concentration of the four different compounds was tested in 3-6 cells. […] All EC50 and IC50 values and their respective errors were determined by performing 100 iterations of a logistic function curve fit.

Data set [4] has as its target T3, myosin light-chain kinase (MLCK(h)) (Homo sapiens, UniProt Q9H1R3).
T3 construct: purchased EMD Millipore KinaseProfiler service (Millipore UK Ltd.)
The data set is described as follows: Kinase inhibitory activity (EMD Millipore KinaseProfiler), MLCK. Format: biochemical. The conditions noted are these: 20 μM highest concentration used; read-out: MLCK EC50/IC50 affinities. The protocol: as §2, §3

Another data set concerns the target T4, cdk2 cyclinA(h) (Homo sapiens, UniProt P24941).
T4 construct: purchased EMD Millipore KinaseProfiler service (Millipore UK Ltd.)
Description: Kinase inhibitory activity (EMD Millipore KinaseProfiler), cdk2. Format: biochemical. The protocol: as §2, §3

The target in another data set is T5, Cdk1 cyclinB(h) (Homo sapiens, UniProt P06493).
T5 construct: purchased EMD Millipore KinaseProfiler service (Millipore UK Ltd.)
The data set is described as follows: Kinase inhibitory activity (EMD Millipore KinaseProfiler), cdk1. It counts as biochemical. Conditions: 20 μM highest concentration used; read-out: Cdk1 EC50/IC50 affinities. The protocol:
as §2, §1

The target in another data set is T6, cdk5 p35(h) (Homo sapiens, UniProt Q00535).
T6 construct: purchased EMD Millipore KinaseProfiler service (Millipore UK Ltd.)
Description: Kinase inhibitory activity (EMD Millipore KinaseProfiler), cdk5. Conditions: 20 μM highest concentration used; read-out: Cdk5 EC50/IC50 affinities. It counts as biochemical. How it is done:
as §2, §1

Setting [5] is: whole cell perforated patch clamp, deactivation (tail) currents from N-type channels, read-out: N-Type Ca^2+ Channel Activity EC50 +/− SEM.
The mark [6] stands for this setting: Table 3, calcium channel agonist, read-out: N-type EC50/IC50 affinities.

T1 sequence (Q02294 whole entry): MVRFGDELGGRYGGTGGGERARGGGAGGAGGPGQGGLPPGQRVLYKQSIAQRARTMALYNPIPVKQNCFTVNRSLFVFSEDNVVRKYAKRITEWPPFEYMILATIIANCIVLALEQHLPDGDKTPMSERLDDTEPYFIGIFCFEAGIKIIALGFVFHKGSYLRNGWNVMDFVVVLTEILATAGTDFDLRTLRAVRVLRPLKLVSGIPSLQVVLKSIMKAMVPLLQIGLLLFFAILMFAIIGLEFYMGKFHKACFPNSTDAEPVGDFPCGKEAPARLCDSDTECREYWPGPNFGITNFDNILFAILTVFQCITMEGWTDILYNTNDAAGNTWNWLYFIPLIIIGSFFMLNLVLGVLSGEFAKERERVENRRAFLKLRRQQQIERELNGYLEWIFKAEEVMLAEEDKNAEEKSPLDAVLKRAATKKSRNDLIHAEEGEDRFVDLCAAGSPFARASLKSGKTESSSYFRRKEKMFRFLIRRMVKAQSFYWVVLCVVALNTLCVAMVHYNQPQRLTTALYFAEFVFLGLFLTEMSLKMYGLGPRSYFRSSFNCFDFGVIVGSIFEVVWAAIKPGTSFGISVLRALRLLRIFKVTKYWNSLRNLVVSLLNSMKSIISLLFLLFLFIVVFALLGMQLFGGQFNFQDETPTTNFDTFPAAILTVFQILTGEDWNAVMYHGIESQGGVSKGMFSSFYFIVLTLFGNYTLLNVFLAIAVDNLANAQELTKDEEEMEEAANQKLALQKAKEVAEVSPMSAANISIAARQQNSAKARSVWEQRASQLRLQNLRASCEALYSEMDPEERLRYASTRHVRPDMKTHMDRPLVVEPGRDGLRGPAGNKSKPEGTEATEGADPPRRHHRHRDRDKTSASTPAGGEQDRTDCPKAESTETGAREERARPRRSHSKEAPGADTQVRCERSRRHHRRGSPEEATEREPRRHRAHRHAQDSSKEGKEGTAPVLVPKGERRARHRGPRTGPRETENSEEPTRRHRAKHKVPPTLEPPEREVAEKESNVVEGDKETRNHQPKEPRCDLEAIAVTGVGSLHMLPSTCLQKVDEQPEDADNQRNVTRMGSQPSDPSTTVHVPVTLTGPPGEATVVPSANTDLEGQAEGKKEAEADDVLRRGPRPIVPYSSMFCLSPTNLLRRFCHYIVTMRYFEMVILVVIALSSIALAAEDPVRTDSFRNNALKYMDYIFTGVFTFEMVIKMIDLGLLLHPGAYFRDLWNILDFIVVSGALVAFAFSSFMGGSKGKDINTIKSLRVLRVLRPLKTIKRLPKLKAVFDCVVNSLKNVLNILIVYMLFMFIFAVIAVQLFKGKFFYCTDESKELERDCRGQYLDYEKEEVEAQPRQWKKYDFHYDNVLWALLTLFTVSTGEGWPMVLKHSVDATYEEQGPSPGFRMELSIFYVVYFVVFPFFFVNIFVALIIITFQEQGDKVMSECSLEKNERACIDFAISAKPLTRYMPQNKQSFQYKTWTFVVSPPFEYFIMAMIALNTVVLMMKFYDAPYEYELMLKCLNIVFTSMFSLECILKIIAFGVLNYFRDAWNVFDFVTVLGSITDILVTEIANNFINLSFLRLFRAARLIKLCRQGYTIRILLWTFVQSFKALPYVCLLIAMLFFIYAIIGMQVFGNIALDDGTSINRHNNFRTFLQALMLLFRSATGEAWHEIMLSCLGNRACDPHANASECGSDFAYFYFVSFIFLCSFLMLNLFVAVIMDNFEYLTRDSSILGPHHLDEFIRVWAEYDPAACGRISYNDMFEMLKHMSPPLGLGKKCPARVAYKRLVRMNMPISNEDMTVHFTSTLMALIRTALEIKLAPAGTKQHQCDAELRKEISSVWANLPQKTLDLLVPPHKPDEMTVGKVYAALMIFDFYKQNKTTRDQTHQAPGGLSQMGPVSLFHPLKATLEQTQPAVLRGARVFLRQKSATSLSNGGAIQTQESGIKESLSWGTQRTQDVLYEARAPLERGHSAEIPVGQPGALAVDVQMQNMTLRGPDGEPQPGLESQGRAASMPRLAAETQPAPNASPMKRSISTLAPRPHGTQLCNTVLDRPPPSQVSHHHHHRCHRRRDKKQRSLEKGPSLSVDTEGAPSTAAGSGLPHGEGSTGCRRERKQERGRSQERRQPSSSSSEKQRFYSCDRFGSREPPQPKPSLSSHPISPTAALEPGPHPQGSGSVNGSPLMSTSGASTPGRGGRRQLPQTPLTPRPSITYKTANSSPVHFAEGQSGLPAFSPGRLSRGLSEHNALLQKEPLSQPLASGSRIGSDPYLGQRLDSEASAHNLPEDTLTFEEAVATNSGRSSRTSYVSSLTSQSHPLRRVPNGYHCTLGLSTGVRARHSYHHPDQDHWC
T2 sequence (P27361 whole entry): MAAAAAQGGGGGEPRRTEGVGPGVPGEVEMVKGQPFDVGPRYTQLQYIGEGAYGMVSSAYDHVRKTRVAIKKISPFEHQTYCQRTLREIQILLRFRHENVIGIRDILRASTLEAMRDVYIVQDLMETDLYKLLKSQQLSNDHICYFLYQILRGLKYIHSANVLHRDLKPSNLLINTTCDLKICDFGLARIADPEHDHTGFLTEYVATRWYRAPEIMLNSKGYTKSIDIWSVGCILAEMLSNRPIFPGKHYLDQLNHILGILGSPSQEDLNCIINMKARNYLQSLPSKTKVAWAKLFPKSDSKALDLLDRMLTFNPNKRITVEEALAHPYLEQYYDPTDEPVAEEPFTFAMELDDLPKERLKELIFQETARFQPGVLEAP
T5 sequence (P06493 whole entry): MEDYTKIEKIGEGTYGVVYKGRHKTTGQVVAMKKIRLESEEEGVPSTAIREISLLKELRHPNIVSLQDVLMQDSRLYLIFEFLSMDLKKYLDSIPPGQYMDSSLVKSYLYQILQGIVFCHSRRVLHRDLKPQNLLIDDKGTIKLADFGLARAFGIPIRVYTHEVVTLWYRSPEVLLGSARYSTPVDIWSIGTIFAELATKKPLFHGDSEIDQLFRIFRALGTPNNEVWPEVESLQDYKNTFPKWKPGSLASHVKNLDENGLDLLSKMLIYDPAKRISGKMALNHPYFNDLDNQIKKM
T5 sequence (P14635 whole entry partner): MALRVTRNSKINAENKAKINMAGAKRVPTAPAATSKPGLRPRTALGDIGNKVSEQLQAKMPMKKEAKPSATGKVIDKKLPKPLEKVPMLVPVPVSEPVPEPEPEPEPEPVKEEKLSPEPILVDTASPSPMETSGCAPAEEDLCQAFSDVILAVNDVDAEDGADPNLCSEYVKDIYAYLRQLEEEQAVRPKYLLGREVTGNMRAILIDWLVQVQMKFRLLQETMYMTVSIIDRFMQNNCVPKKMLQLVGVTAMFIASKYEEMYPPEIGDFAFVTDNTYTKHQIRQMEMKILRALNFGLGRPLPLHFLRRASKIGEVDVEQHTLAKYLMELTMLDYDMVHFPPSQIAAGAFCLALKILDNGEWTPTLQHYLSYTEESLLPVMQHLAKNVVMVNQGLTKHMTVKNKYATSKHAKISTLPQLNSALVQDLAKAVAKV
T6 sequence (Q00535 whole entry): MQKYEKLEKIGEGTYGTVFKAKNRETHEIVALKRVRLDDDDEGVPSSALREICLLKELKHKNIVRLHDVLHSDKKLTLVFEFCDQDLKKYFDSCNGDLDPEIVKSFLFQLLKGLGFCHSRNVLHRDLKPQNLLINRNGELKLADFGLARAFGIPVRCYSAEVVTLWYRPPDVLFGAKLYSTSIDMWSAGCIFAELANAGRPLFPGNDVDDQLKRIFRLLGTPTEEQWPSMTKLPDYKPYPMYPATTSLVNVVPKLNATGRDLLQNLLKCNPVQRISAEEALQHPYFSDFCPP
T6 sequence (Q15078 whole entry partner): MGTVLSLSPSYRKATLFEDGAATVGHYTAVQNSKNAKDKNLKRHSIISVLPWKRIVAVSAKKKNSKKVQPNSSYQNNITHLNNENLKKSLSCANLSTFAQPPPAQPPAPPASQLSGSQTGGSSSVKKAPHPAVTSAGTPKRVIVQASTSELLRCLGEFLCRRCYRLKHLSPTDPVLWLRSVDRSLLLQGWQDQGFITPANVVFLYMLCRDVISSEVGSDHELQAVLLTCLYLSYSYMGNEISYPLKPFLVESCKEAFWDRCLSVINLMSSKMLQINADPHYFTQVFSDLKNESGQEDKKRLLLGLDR

What is called solubility is the dissolved amount per volume that the medium holds. A high value points to a readily soluble substance. For the compound `CC[C@H](CO)Nc1nc(NCc2ccccc2)c2ncn(C)c2n1` [Compound 13k, (R)-2-(6-(Benzylamino)-9-methyl-9H-purin-2-ylamino)butan-1-ol], the EC50 in data set [1] (setting [5]) is greater than 70 µM. Besides, in data set [2], the solubility was no more than 200 µM.
As to `CC[C@H](CO)Nc1nc(NCc2ccc(C)s2)c2ncn(C(C)C)c2n1` [Compound 13u, (R)-2-(9-Isopropyl-6-((5-methylthiophen-2-yl)methylamino)-9H-purin-2-ylamino)butan-1-ol], the “agonist effect on the Ca^2+ channel tail currents (in words)” value in data set [1] (N-type) was “strong agonist effect”. In addition, in data set [1] (N-type), the “increased Ca^2+ channel agonism vs. (R)-roscovitine” value is reported as roughly 4 fold. Also, the EC50 in data set [1] (setting [6]) and in data set [1] (setting [5]) was 11.3 ± 1.48 µM throughout. For the same compound, the IC50 in data set [3] is greater than 20 µM; in data set [4] it was 19.5 ± 8.65 µM.
In the case of `CC[C@H](CO)Nc1nc(NCc2ccc(C)s2)c2ncn(C)c2n1` [Compound 13w, (2R)-2-[(9-Methyl-6-{[(5-methylthiophen-2-yl)methyl]amino}-9H-purin-2-yl)amino]butan-1-ol], the “decreased channel activity vs 13u” value in data set [1] is on record as “ca. 3 fold”. For the same compound, the “agonist effect on the Ca^2+ channel tail currents (in words)” value in data set [1] (N-type) is listed as “strong agonist effect”. Also, the “maximal fold increase in the tail current integral relative to control” value in data set [1] (N-type channels) was roughly 13 fold. Moreover, the EC50 in data set [1] (setting [6]) amounted to 30 ± 1.87 µM; in data set [1] (setting [5]) it was 30 ± 1.87 µM; at cdk2 cyclinA(h) (determined in duplicate at 0.2, 2, and 20 μM, read-out: Cdk2 Activity EC50 +/− SEM), 3 µM. Also, the IC50 on cdk2 cyclinA(h) (20 μM highest concentration used, read-out: Cdk2 EC50/IC50 affinities) was 3.04 ± 0.17 µM; at Cdk1 cyclinB(h), 10.5 ± 2.77 µM; at cdk5 p35(h), 2.81 ± 0.91 µM; in data set [3] it was greater than 20 µM; in data set [4] it was greater than 20 µM.
